What was measured:
[1] = tested on: SR; assay: NCI five-dose testing, SR
[2] = tested on: MCF7; assay: NCI five-dose testing, MCF7; conditions: for TGI: Breast Cancer; for TGI / GI50: MCF7; for GI50 / CC50: Homo sapiens; for CC50: MCF7, read-out: LC50
[3] = tested on: RPMI-8226; assay: NCI five-dose testing, RPMI-8226; conditions: for GI50 / CC50: Homo sapiens; for GI50 / TGI: RPMI-8226; for CC50: RPMI-8226, read-out: LC50; for TGI: Leukemia
[4] = tested on: MDA-MB-468; assay: NCI five-dose testing, MDA-MB-468; conditions: for TGI: Breast Cancer; for TGI / GI50: MDA-MB-468; for GI50 / CC50: Homo sapiens; for CC50: MDA-MB-468, read-out: LC50
[5] = tested on: T-47D; assay: NCI five-dose testing, T-47D; conditions: for TGI: Breast Cancer, T-47D; for GI50 / CC50: Homo sapiens, T47D; for CC50: read-out: LC50
[6] = tested on: NCI-H522; assay: NCI five-dose testing, NCI-H522
[7] = tested on: K-562; assay: NCI five-dose testing, K-562
[8] = tested on: HL-60(TB); assay: NCI five-dose testing, HL-60(TB)
[9] = tested on: CCRF-CEM; assay: NCI five-dose testing, CCRF-CEM; conditions: for GI50 / CC50: Homo sapiens; for CC50: read-out: LC50; for TGI: Leukemia
[10] = tested on: MOLT-4; assay: NCI five-dose testing, MOLT-4; conditions: for GI50 / CC50: Homo sapiens; for GI50 / TGI: MOLT-4; for CC50: MOLT-4, read-out: LC50; for TGI: Leukemia
[11] = tested on: SK-MEL-5; assay: NCI five-dose testing, SK-MEL-5; type: cell-based; conditions: Melanoma
[12] = tested on: EKVX; assay: NCI five-dose testing, EKVX; type: cell-based; conditions: Non-Small Cell Lung Cancer
[13] = tested on: IGROV1; assay: NCI five-dose testing, IGROV1; type: cell-based
[14] = tested on: RXF 393; assay: NCI five-dose testing, RXF 393; type: cell-based; conditions: Renal Cancer
[15] = tested on: OVCAR-3; assay: NCI five-dose testing, OVCAR-3
[16] = Homo sapiens, read-out: LC50 (the source's name)

| SMILES | TGI [2] | GI50 [2] | CC50 [2] | GI50 [3] | CC50 [3] | TGI [3] | TGI [4] | GI50 [4] | CC50 [4] | TGI [5] | GI50 [5] | CC50 [5] | GI50 [9] | CC50 [9] | TGI [9] | GI50 [10] | CC50 [10] | TGI [10] | other results |
| --- | --- | --- | --- | --- | --- | --- | --- | --- | --- | --- | --- | --- | --- | --- | --- | --- | --- | --- | --- |
| COC1=C[C@H]2[C@H]3C[C@@H]1CN1C(=O)C(=O)N4C5=C(C(=O)c6ccccc6C5=O)[C@]3(OC)[C@]214 | 2.94 × 10^−6 | 0.921 µM | 8.87 µM | 0.803 µM | 4.71 µM | 2.05 × 10^−6 | – | – | – | – | – | – | – | – | – | – | – | – | GI50 ([1]; Homo sapiens): 1.4 µM; CC50 ([1]; Homo sapiens, read-out: LC50): 5.31 µM; TGI ([1]; Leukemia): 2.72 × 10^−6 |
| O=C1C2=C(C(=O)c3ccccc31)N1C(=O)N(Cc3ccccc3)C[C@@]13C=C[C@@H]2O3 | – | – | – | – | – | – | 1.59 × 10^−6 | 0.472 µM | 4.08 µM | 3.26 × 10^−6 | 1.39 µM | 7.64 µM | – | – | – | – | – | – | – |
| C=CCN(C(=O)C(=O)NC1=CC(=O)c2ccccc2C1=O)c1ccsc1C(=O)OC | – | – | – | 1.47 µM | 5.28 µM | 2.79 × 10^−6 | 9.41 × 10^−7 | 0.226 µM | 3.09 µM | 2.61 × 10^−6 | 1.32 µM | 5.14 µM | 1.3 µM | 5.07 µM | 2.57 × 10^−6 | 1.11 µM | 4.81 µM | 2.31 × 10^−6 | GI50 ([6]; Homo sapiens, NCI-H522): 1.45 µM; CC50 ([6]; Homo sapiens, NCI-H522, read-out: LC50): 5.28 µM; TGI ([6]; Non-Small Cell Lung Cancer, NCI-H522): 2.77 × 10^−6; GI50 ([7]; Homo sapiens, K562): 1.45 µM; CC50 ([7]; Homo sapiens, K562, read-out: LC50): 5.28 µM; TGI ([7]; Leukemia, K-562): 2.77 × 10^−6; GI50 ([8]; Homo sapiens, HL-60): 1.08 µM; CC50 ([8]; Homo sapiens, HL-60, read-out: LC50): 4.79 µM; TGI ([8]; Leukemia, HL-60(TB)): 2.27 × 10^−6 |
| COC1=CC2C3=C(C(=O)c4ccccc4C3=O)N3C(=O)C(=O)N(Cc4ccsc4)[C@]23C=C1 (stereo partly drawn) | 5.88 × 10^−6 | 1.26 µM | 25.2 µM | – | – | – | 8.16 × 10^−7 | 0.113 µM | 9.32 µM | – | – | – | – | – | – | – | – | – | GI50 ([11]; Homo sapiens): 0.01 µM; CC50 [11, 16]: 6.04 µM; TGI [11]: 2.16 × 10^−6; GI50 ([12]; Homo sapiens): 1.11 µM; CC50 [12, 16]: 25.7 µM; TGI [12]: 5.75 × 10^−6; GI50 ([13]; Homo sapiens, IGROV-1, Ovarian Cancer): 1.27 µM; CC50 ([13]; Homo sapiens, IGROV-1, Ovarian Cancer, read-out: LC50 (the source's name)): 70.5 µM; TGI ([13]; Ovarian Cancer): 1.40 × 10^−5; GI50 ([14]; Homo sapiens): 1.43 µM; CC50 [14, 16]: 9.92 µM; TGI [14]: 3.76 × 10^−6 |
| O=C1C=C(NC(=O)[C@H](Cc2ccccc2)n2cccc2)C(=O)c2ccccc21 | – | – | – | – | – | – | – | – | – | 2.74 × 10^−6 | 1.42 µM | 5.26 µM | 1.11 µM | 4.84 µM | 2.32 × 10^−6 | 0.685 µM | 4.29 µM | 1.84 × 10^−6 | – |
| COC1C[C@H]2C[C@]34CC3[C@H]2[C@]23C4C4=C(C(=O)c5ccccc5C4=O)N2C(=O)C(=O)N13 (stereo partly drawn) | – | – | – | – | – | – | 3.18 × 10^−6 | 1.31 µM | 7.73 µM | – | – | – | – | – | – | – | – | – | GI50 ([15]; Homo sapiens, OVCAR-3): 1.49 µM; CC50 ([15]; Homo sapiens, OVCAR-3, read-out: LC50): 19.6 µM; TGI ([15]; Ovarian Cancer, OVCAR-3): 4.93 × 10^−6 |
